Measurements published in ChEMBL document CHEMBL1201862, “PubChem BioAssay data set” (2004).
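Protocol summary: plate cells (96-well), add compound at 5 concentrations, incubate 48 h, interpolate endpoints linearly. GI50 is the concentration that inhibits growth by half.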 Calls of active or inactive are those of the source. Cut-off read from the data, not from the text of the source: active = GI50 up to about 1.1 µM and inactive = higher.

Experiments:
Experiment in all cases: inhibition of tumour cell growth, NCI panel, 48 h
786-0 = tested on: 786-0
A498 = tested on: A498
A549 = tested on: A549
ACHN = tested on: ACHN
BT-549 = tested on: BT-549
CAKI-1 = tested on: CAKI-1
CCRF-CEM = tested on: CCRF-CEM
COLO 205 = tested on: COLO 205
DU-145 = tested on: DU-145
EKVX = tested on: EKVX
HCC 2998 = tested on: HCC 2998
HCT-116 = tested on: HCT-116
HCT-15 = tested on: HCT-15
HL-60 = tested on: HL-60
HOP-62 = tested on: HOP-62
HOP-92 = tested on: HOP-92
HT-29 = tested on: HT-29
Hs-578T = tested on: Hs-578T
IGROV-1 = tested on: IGROV-1
K562 = tested on: K562
KM12 = tested on: KM12
LOX IMVI = tested on: LOX IMVI
M14 = tested on: M14
MCF7 = tested on: MCF7
MDA-MB-231 = tested on: MDA-MB-231
MDA-MB-435 = tested on: MDA-MB-435
MDA-N = tested on: MDA-N
MOLT-4 = tested on: MOLT-4
Malme-3M = tested on: Malme-3M
NCI-H23 = tested on: NCI-H23
NCI-H460 = tested on: NCI-H460
NCI-H522 = tested on: NCI-H522
NCI/ADR-RES = tested on: NCI/ADR-RES
OVCAR-3 = tested on: OVCAR-3
OVCAR-4 = tested on: OVCAR-4
OVCAR-5 = tested on: OVCAR-5
OVCAR-8 = tested on: OVCAR-8
PC-3 = tested on: PC-3
RPMI-8226 = tested on: RPMI-8226
RXF 393 = tested on: RXF 393
SF-268 = tested on: SF-268
SF-295 = tested on: SF-295
SK-MEL-28 = tested on: SK-MEL-28
SK-MEL-2 = tested on: SK-MEL-2
SK-MEL-5 = tested on: SK-MEL-5
SK-OV-3 = tested on: SK-OV-3
SN12C = tested on: SN12C
SNB-19 = tested on: SNB-19
SNB-75 = tested on: SNB-75
SW-620 = tested on: SW-620
T47D = tested on: T47D
TK-10 = tested on: TK-10
U-251 = tested on: U-251
UACC-257 = tested on: UACC-257
UACC-62 = tested on: UACC-62
UO-31 = tested on: UO-31
NCI-H226 = tested on: NCI-H226
SF-539 = tested on: SF-539

Structure (SMILES): Cc1cc2nc(N3C(=O)/C(=C/c4ccc(Oc5ccccc5)cc4)N=C3c3ccccc3)sc2cc1C
- GI50 (786-0): 50.8 µM (inactive)
- GI50 (A498): 54.7 µM (inactive)
- GI50 (A549): 48.2 µM (inactive)
- GI50 (ACHN): > 100 µM (inactive)
- GI50 (BT-549): 43 µM (inactive)
- GI50 (CAKI-1): 50.5 µM (inactive)
- GI50 (CCRF-CEM): 26.7 µM (inactive)
- GI50 (COLO 205): 20.9 µM (inactive)
- GI50 (DU-145): > 100 µM (inactive)
- GI50 (EKVX): 42.6 µM (inactive)
- GI50 (HCC 2998): 40 µM (inactive)
- GI50 (HCT-116): 40.6 µM (inactive)
- GI50 (HCT-15): 29.4 µM
- GI50 (HL-60): 23.6 µM (inactive)
- GI50 (HOP-62): > 100 µM (inactive)
- GI50 (HOP-92): 95.5 µM (inactive)
- GI50 (HT-29): 31.6 µM (inactive)
- GI50 (Hs-578T): 52.2 µM (inactive)
- GI50 (IGROV-1): 37.4 µM (inactive)
- GI50 (K562): 24.5 µM (inactive)
- GI50 (KM12): 26.1 µM (inactive)
- GI50 (LOX IMVI): 44.6 µM (inactive)
- GI50 (M14): 51.8 µM (inactive)
- GI50 (MCF7): 24.2 µM (inactive)
- GI50 (MDA-MB-231): > 100 µM (inactive)
- GI50 (MDA-MB-435): 19.5 µM (inactive)
- GI50 (MDA-N): 25.2 µM (inactive)
- GI50 (MOLT-4): 30.2 µM (inactive)
- GI50 (Malme-3M): 70.6 µM (inactive)
- GI50 (NCI-H23): 42.7 µM (inactive)
- GI50 (NCI-H460): 32.1 µM (inactive)
- GI50 (NCI-H522): 24.6 µM (inactive)
- GI50 (NCI/ADR-RES): 26.2 µM (inactive)
- GI50 (OVCAR-3): 59.3 µM (inactive)
- GI50 (OVCAR-4): 45.7 µM (inactive)
- GI50 (OVCAR-5): 58.1 µM (inactive)
- GI50 (OVCAR-8): 71.8 µM (inactive)
- GI50 (PC-3): 40 µM (inactive)
- GI50 (RPMI-8226): 24.4 µM (inactive)
- GI50 (RXF 393): 58.9 µM (inactive)
- GI50 (SF-268): 63.8 µM (inactive)
- GI50 (SF-295): 33 µM (inactive)
- GI50 (SK-MEL-28): 69.7 µM (inactive)
- GI50 (SK-MEL-2): 23.3 µM (inactive)
- GI50 (SK-MEL-5): 30.8 µM (inactive)
- GI50 (SK-OV-3): > 100 µM (inactive)
- GI50 (SN12C): > 100 µM (inactive)
- GI50 (SNB-19): > 100 µM (inactive)
- GI50 (SNB-75): 62.2 µM (inactive)
- GI50 (SW-620): 28.2 µM (inactive)
- GI50 (T47D): 42.3 µM (inactive)
- GI50 (TK-10): 59.4 µM (inactive)
- GI50 (U-251): 64.6 µM (inactive)
- GI50 (UACC-257): 29.2 µM (inactive)
- GI50 (UACC-62): 35.4 µM (inactive)
- GI50 (UO-31): 50.7 µM (inactive)

Structure (SMILES): N#CC(c1ccccc1)N(CCOCCOCCN(C(=O)c1ccccc1)C(C#N)c1ccccc1)C(=O)c1ccccc1 (stereo unspecified)
- GI50 (786-0): > 100 µM (inactive)
- GI50 (A498): > 100 µM (inactive)
- GI50 (A549): 98.9 µM (inactive)
- GI50 (ACHN): > 100 µM (inactive)
- GI50 (BT-549): > 100 µM (inactive)
- GI50 (CAKI-1): > 100 µM (inactive)
- GI50 (CCRF-CEM): 58.5 µM (inactive)
- GI50 (COLO 205): > 100 µM (inactive)
- GI50 (DU-145): > 100 µM (inactive)
- GI50 (EKVX): > 100 µM (inactive)
- GI50 (HCC 2998): 94.2 µM (inactive)
- GI50 (HCT-116): 46.6 µM (inactive)
- GI50 (HCT-15): > 100 µM
- GI50 (HL-60): 36.2 µM (inactive)
- GI50 (HOP-92): 43.8 µM (inactive)
- GI50 (HT-29): > 100 µM (inactive)
- GI50 (Hs-578T): > 100 µM (inactive)
- GI50 (IGROV-1): > 100 µM (inactive)
- GI50 (K562): 56.6 µM (inactive)
- GI50 (KM12): > 100 µM (inactive)
- GI50 (LOX IMVI): 91.2 µM (inactive)
- GI50 (M14): > 100 µM (inactive)
- GI50 (MCF7): > 100 µM (inactive)
- GI50 (MDA-MB-231): > 100 µM (inactive)
- GI50 (MDA-MB-435): 83 µM (inactive)
- GI50 (MDA-N): > 100 µM (inactive)
- GI50 (MOLT-4): 32.2 µM (inactive)
- GI50 (Malme-3M): 93.5 µM (inactive)
- GI50 (NCI-H226): > 100 µM (inactive)
- GI50 (NCI-H23): 84.7 µM (inactive)
- GI50 (NCI-H460): 81.3 µM (inactive)
- GI50 (NCI/ADR-RES): 28.2 µM (inactive)
- GI50 (OVCAR-3): 66.8 µM (inactive)
- GI50 (OVCAR-4): 81.7 µM (inactive)
- GI50 (OVCAR-5): > 100 µM (inactive)
- GI50 (OVCAR-8): > 100 µM (inactive)
- GI50 (PC-3): 37.5 µM (inactive)
- GI50 (RXF 393): > 100 µM (inactive)
- GI50 (SF-268): > 100 µM (inactive)
- GI50 (SF-295): > 100 µM (inactive)
- GI50 (SF-539): > 100 µM (inactive)
- GI50 (SK-MEL-28): 82.6 µM (inactive)
- GI50 (SK-MEL-2): 85.3 µM (inactive)
- GI50 (SK-MEL-5): 34.9 µM (inactive)
- GI50 (SK-OV-3): > 100 µM (inactive)
- GI50 (SN12C): 93.3 µM (inactive)
- GI50 (SNB-19): > 100 µM (inactive)
- GI50 (SNB-75): > 100 µM (inactive)
- GI50 (SW-620): > 100 µM (inactive)
- GI50 (T47D): 7.08 µM (inactive)
- GI50 (TK-10): 78.2 µM (inactive)
- GI50 (U-251): > 100 µM (inactive)
- GI50 (UACC-257): 47.1 µM (inactive)
- GI50 (UACC-62): 53.6 µM (inactive)
- GI50 (UO-31): 37.1 µM (inactive)
